# Results published in US9586931B2 (Merck Sharp & Dohme Corp., priority 2012, dated 2017).
# Target: T1, recombinant human GST-Syk (Homo sapiens, UniProt P43405)
# T1 construct: purchased Carna Biosciences 08-176
# Experiment: Homogeneous Time-Resolved Fluorescence (HTRF) assay for the recombinant human Syk enzyme
# Assay type: biochemical
# Conditions: recombinant human GST-Syk 5 pM, ATP 25 μM, 10-dose titration 10 μM to 0.508 nM; read-out: rhSYK Activity IC50
# Method in brief: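 GST-hSyk fusion protein phosphorylated a peptide for 45 min at room temperature. The reaction was quenched with 2 nM Eu-anti-phosphotyrosine antibody and 70 nM SA-APC in 15 mM Tris pH 7.5, 40 mM EDTA, 0.01% Tween 20. The HTRF signal was read after 30 min.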
row,IC50 [nM],Compound
1,41.8,"Cc1cc(Nc2nccc(C(F)(F)F)n2)cc(-c2cn(CCC(=O)O)nn2)c1 [Example 5.60, 3-[4-(3-methyl-5-{[4-(trifluoromethyl)pyrimidin-2-yl]amino}phenyl)-1H-1,2,3-triazol-1-yl]propanoic acid]"
2,41.5,"COc1nc(Nc2cc(C)cc(-c3cn(CC(C)(O)C(C)(C)O)nn3)c2)ncc1Cl (stereo not drawn) [Example 21.27, 1-(4-{3-[(5-chloro-4-methoxypyrimidin-2-yl)amino]-5-methylphenyl}-1H-1,2,3-triazol-1-yl)-2,3-dimethylbutane-2,3-diol]"
3,1.4,"Cc1cc(Nc2cc(C(F)F)ccn2)nc(-c2cn(C(C)C3CNC(=O)O3)nn2)c1 (single isomer, unassigned) [Example 7.11, 5-(1-(4-(6-((4-(difluoromethyl)pyridin-2-yl)amino)-4-methylpyridin-2-yl)-1H-1,2,3-triazol-1-yl)ethyl)oxazolidin-2-one]"
4,9.8,"Cc1cc(Nc2cc(C(F)(F)F)ccn2)nc(-c2cn(C3CCC(C(=O)O)C(C)(C)C3)nn2)c1 (single isomer, unassigned) [Example 3.8, 2,2-dimethyl-4-[4-(4-methyl-6-{[4-(trifluoromethyl)pyridin-2-yl]amino}pyridin-2-yl)-1H-1,2,3-triazol-1-yl]cyclohexanecarboxylic acid]"
5,109,"COc1nc(Nc2cc(C)cc(-c3cn(CC(C)(O)C(C)(C)O)nn3)c2)ncc1F (stereo not drawn) [Example 21.20, 1-(4-{3-[(5-fluoro-4-methoxypyrimidin-2-yl)amino]-5-methylphenyl}-1H-1,2,3-triazol-1-yl)-2,3-dimethylbutane-2,3-diol]"
6,19.7,"Cc1cc(Nc2nccc(C(F)F)n2)cc(-c2cn(CC(C)(O)CC#N)nn2)c1 (single isomer, unassigned) [Example 27.1, 4-(4-(3-((4-(difluoromethyl)pyrimidin-2-yl)amino)-5-methylphenyl)-1H-1,2,3-triazol-1-yl)-3-hydroxy-3-methylbutanenitrile]"
7,47.1,"Cc1cc(Nc2cc(C(F)(F)F)ccn2)nc(-c2cn(CCS(C)(=O)=O)nn2)c1 [Example 5.96, 4-methyl-6-{1-[2-(methylsulfonyl)ethyl]-1H-1,2,3-triazol-4-yl}-N-[4-(trifluoromethyl)pyridin-2-yl]pyridin-2-amine]"
8,17.8,"C/C=C/Cn1cc(-c2cc(C)cc(Nc3cc(C(F)(F)F)ccn3)n2)nn1 [Example 5.38, 6-{1-[(2E)-but-2-en-1-yl]-1H-1,2,3-triazol-4-yl}-4-methyl-N-[4-(trifluoromethyl)pyridin-2-yl]pyridin-2-amine]"
9,2,"Cc1cc(Nc2cc(C(F)F)ccn2)nc(-c2cn(CC3CNC(=O)O3)nn2)c1 (single isomer, unassigned) [Example 7.12, 5-((4-(6-((4-(difluoromethyl)pyridin-2-yl)amino)-4-methylpyridin-2-yl)-1H-1,2,3-triazol-1-yl)methyl)oxazolidin-2-one]"
10,17,"Cc1cc(Nc2nccc(C(F)(F)F)n2)cc(-c2cn(C3CCCCC3O)nn2)c1 (racemic) [Example 5.57, 2-[4-(3-methyl-5-{[4-(trifluoromethyl)pyrimidin-2-yl]amino}phenyl)-1H-1,2,3-triazol-1-yl]cyclohexanol]"
11,645,"Cc1cc(Nc2cc(C(F)(F)F)ccn2)nc(-c2cn(C(C)C(=O)N3CCc4ccccc4C3)nn2)c1 (stereo not drawn) [Example 1.28, 6-{1-[2-(3,4-dihydroisoquinolin-2(1H)-yl)-1-methyl-2-oxoethyl]-1H-1,2,3-triazol-4-yl}-4-methyl-N-[4-(trifluoromethyl)pyridin-2-yl]pyridin-2-amine]"
12,12.8,"Cc1cc(Nc2cc(C(F)(F)F)ccn2)nc(-c2cn(C(C)C(O)CC#N)nn2)c1 (stereo not drawn) [Example 4.2, 3-hydroxy-4-[4-(4-methyl-6-{[4-(trifluoromethyl)pyridin-2-yl]amino}pyridin-2-yl)-1H-1,2,3-triazol-1-yl]pentanenitrile]"
13,30.4,"CCC(O)C(O)Cn1cc(-c2cc(C)cc(Nc3cc(C(F)(F)F)ccn3)n2)nn1 (stereo not drawn) [Example 10.7, 1,4,5-trideoxy-1-[4-(4-methyl-6-{[4-(trifluoromethyl)pyridin-2-yl]amino}pyridin-2-yl)-1H-1,2,3-triazol-1-yl]pentitol]"
14,1.6,"Cc1cc(Nc2cc(C(F)F)ccn2)nc(-c2cn(CC3OC(=O)NC3C)nn2)c1 (single isomer, unassigned) [Example 7.14, 5-((4-(6-((4-(difluoromethyl)pyridin-2-yl)amino)-4-methylpyridin-2-yl)-1H-1,2,3-triazol-1-yl)methyl)-4-methyloxazolidin-2-one]"
15,8,"Cc1cc(Nc2nccc(C(F)F)n2)cc(-c2cn(C(C)C(C)(O)CO)nn2)c1 (single isomer, unassigned) [Example 30.3, 3-(4-(3-((4-(Difluoromethyl)pyrimidin-2-yl)amino)-5-methylphenyl)-1H-1,2,3-triazol-1-yl)-2-methylbutane-1,2-diol]"
16,14.2,"Cc1cc(Nc2cc(C(F)(F)F)ccn2)nc(-c2cn([C@@H](C)C(N)=O)nn2)c1 [Example 1.24, (2S)-2-[4-(4-methyl-6-{[4-(trifluoromethyl)pyridin-2-yl]amino}pyridin-2-yl)-1H-1,2,3-triazol-1-yl]propanamide]"
17,122,"Cc1cc(Nc2nccc(C(F)(F)F)n2)cc(-c2cn(CC(=O)N3[C@H](C)COC[C@@H]3C)nn2)c1 [Example 5.65, N-[3-(1-{2-[(cis)-3,5-dimethylmorpholin-4-yl]-2-oxoethyl}-1H-1,2,3-triazol-4-yl)-5-methylphenyl]-4-(trifluoromethyl)pyrimidin-2-amine]"
18,26.6,"Cc1cc(Nc2cc(C(F)(F)F)ccn2)nc(-c2cn(CC(O)CN3CCCC3=O)nn2)c1 (stereo not drawn) [Example 4.30, 1-{2-hydroxy-3-[4-(4-methyl-6-{[4-(trifluoromethyl)pyridin-2-yl]amino}pyridin-2-yl)-1H-1,2,3-triazol-1-yl]propyl}pyrrolidin-2-one]"
19,171,"CCOC(=O)/C=C/Cn1cc(-c2cc(C)cc(Nc3cc(C(F)(F)F)ccn3)n2)nn1 [Example 5.34, ethyl (2E)-4-[4-(4-methyl-6-{[4-(trifluoromethyl)pyridin-2-yl]amino}pyridin-2-yl)-1H-1,2,3-triazol-1-yl]but-2-enoate]"
20,33.1,"CCOC(=O)C(O)C(O)Cn1cc(-c2cc(C)cc(Nc3cc(C(F)(F)F)ccn3)n2)nn1 (stereo not drawn) [Example 10.9, ethyl 2,3-dihydroxy-4-[4-(4-methyl-6-{[4-(trifluoromethyl)pyridin-2-yl]amino}pyridin-2-yl)-1H-1,2,3-triazol-1-yl]butanoate]"
21,40.4,"COC(=O)CCn1cc(-c2cc(C)cc(Nc3cc(C(F)(F)F)ccn3)n2)nn1 [Example 5.10, methyl 3-[4-(4-methyl-6-{[4-(trifluoromethyl)pyridin-2-yl]amino}pyridin-2-yl)-1H-1,2,3-triazol-1-yl]propanoate]"
22,2.6,"Cc1cc(Nc2cc(C(F)(F)F)ccn2)nc(-c2cn(C3CCCCC(O)C3O)nn2)c1 (single isomer, unassigned) [Example 10.5, 3-[4-(4-methyl-6-{[4-(trifluoromethyl)pyridin-2-yl]amino}pyridin-2-yl)-1H-1,2,3-triazol-1-yl]cycloheptane-1,2-diol]"
23,7.3,"Cc1cc(Nc2nccc(C(F)F)n2)cc(-c2cn(CC3(O)CNC(=O)C3)nn2)c1 (single isomer, unassigned) [Example 31.1, 4-((4-(3-((4-(Difluoromethyl)pyrimidin-2-yl)amino)-5-methylphenyl)-1H-1,2,3-triazol-1-yl)methyl)-4-hydroxypyrrolidin-2-one]"
24,20.1,"Cc1cc(Nc2cc(C)c(Cl)cn2)nc(-c2cn(CC(C)(O)C(C)(C)O)nn2)c1 (stereo not drawn) [Example 21.10, 1-(4-{6-[(5-chloro-4-methylpyridin-2-yl)amino]-4-methylpyridin-2-yl}-1H-1,2,3-triazol-1-yl)-2,3-dimethylbutane-2,3-diol]"
25,123,"Cc1cc(Nc2cc(C(F)(F)F)ccn2)nc(-c2cn([C@H](C)C(=O)N3CCC[C@H]3C(N)=O)nn2)c1 [Example 1.19, 1-{(2R)-2-[4-(4-methyl-6-{[4-(trifluoromethyl)pyridin-2-yl]amino}pyridin-2-yl)-1H-1,2,3-triazol-1-yl]propanoyl}prolinamide]"
26,6.8,"Cc1cc(Nc2cc(C(F)(F)F)ccn2)nc(-c2cn([C@H](C)C(N)=O)nn2)c1 [Example 1.23, (2R)-2-[4-(4-methyl-6-{[4-(trifluoromethyl)pyridin-2-yl]amino}pyridin-2-yl)-1H-1,2,3-triazol-1-yl]propanamide]"
27,13.1,"Cc1cc(Nc2nccc(C(F)F)n2)cc(-c2cn(CC(C)(O)CO)nn2)c1 (single isomer, unassigned) [Example 21.8, 3-[4-(3-{[4-(difluoromethyl)pyrimidin-2-yl]amino}-5-methylphenyl)-1H-1,2,3-triazol-1-yl]-2-methylpropane-1,2-diol]"
28,152,"Cc1cc(Nc2nccc(C(F)(F)F)n2)cc(-c2cn(CC(=O)N3CCOCC3(C)C)nn2)c1 [Example 5.66, N-(3-{1-[2-(3,3-dimethylmorpholin-4-yl)-2-oxoethyl]-1H-1,2,3-triazol-4-yl}-5-methylphenyl)-4-(trifluoromethyl)pyrimidin-2-amine]"
29,8,"Cc1cc(Nc2nccc(C(F)F)n2)cc(-c2cn(CC3(C)CNC(=O)O3)nn2)c1 (single isomer, unassigned) [Example 7.31, 5-{[4-(3-{[4-(difluoromethyl)pyrimidin-2-yl]amino}-5-methylphenyl)-1H-1,2,3-triazol-1-yl]methyl}-5-methyl-1,3-oxazolidin-2-one]"
30,7.1,"Cc1cc(Nc2cc(C(F)(F)F)ccn2)nc(-c2cn(C(CO)c3ccccc3)nn2)c1 (stereo not drawn) [Example 13.8, 2-[4-(4-methyl-6-{[4-(trifluoromethyl)pyridin-2-yl]amino}pyridin-2-yl)-1H-1,2,3-triazol-1-yl]-2-phenylethanol]"
